# Where “and” joins values, the source holds several entries; their conditions need not be identical. Equal values may be shown once.
# Experiments:
# [1] = mouse, in vivo; cited from earlier work
# [2] = Acute biodistribution of ^64Cu-labeled tetrazine radioligands in healthy mice; assay type: in vivo, athymic nude mice; conditions: for Large Intestine activity concentration / Small Intestine activity concentration / Stomach activity concentration: contents not removed
# Description: (§1) Mice were administered ^64Cu-Tz-NOTA (25-30 μCi in 200 μL 0.9% sterile saline) via intravenous tail vein injection. Animals (n=4 per group) were euthanized by CO2(g) asphyxiation at 1, 4, and 24 h after injection. After asphyxiation, tissues were removed, rinsed in water, dried in air for 5 min, weighed, and counted in a gamma counter calibrated for ^64Cu. Counts were converted into activity using a calibration curve generated from known standards. Count data were background- and decay-corrected to the time of injection, and the percent injected dose per gram (% ID/g) for each tissue sample was calculated by normalization to the total activity injected. Contents within the stomach, small intestine, and large intestine were not removed for the measurements.
# as §1, with “^64Cu-Tz-PEG7-NOTA” for “^64Cu-Tz-NOTA”
# as §1, with “^64Cu-Tz-SarAr” for “^64Cu-Tz-NOTA”
# as §1, with “Healthy female athymic nude mice (n=4 per radioligand) were” for “Mice were”, “administered ^64Cu-Tz-PEG7-NOTA or ^64Cu-Tz-SarAr” for “administered ^64Cu-Tz-NOTA”, “vein injection (t=0).” for “vein injection.”, “4, 12,” for “4,”, “injected.” for “injected. Contents within the stomach, small intestine, and large intestine were not removed for the measurements.”
# [3] = In vivo stability of ^64Cu-Tz-SarAr (intact fraction in blood); design: species or system athymic nude mice
# Description: Healthy athymic nude mice were injected with ^64Cu-Tz-SarAr (300-350 μCi) via intravenous tail vein injection. After 15 min, 1 h, or 4 h, the mice were sacrificed via CO2 asphyxiation, and their blood (500 μL) was collected via cardiac puncture in heparinized 1.7 mL microcentrifuge tubes. These tubes were then centrifuged at 10,000 rpm for 10 minutes to separate plasma from red-blood cells. After 10 minutes, the plasma supernatant was then transferred to a new 1.7 mL microcentrifuge tube and placed on ice. Subsequently, 500 μL of ice-cold CH3CN was added to the plasma to precipitate the proteins, and the tubes were vortexed briefly and centrifuged again for 10 min at 10,000 rpm. After this centrifugation, the supernatant was carefully removed and transferred to another 1.7 mL microcentrifuge tube, in which it was subjected to another round of centrifugation at 10,000 rpm for 10 min. After this final centrifugation, the supernatant was again transferred to a clean 1.7 mL microcentrifuge tube. This solution was then analyzed via radio-TLC methods using reverse-phase C18 TLC plates and a mobile phase of 1:1 CH3CN:water (each with 0.1% TFA). Using this method, any free ^64Cu^2+ will remain at the baseline, while ^64Cu-Tz-SarAr and other metabolites will travel up the TLC plate. The fraction of intact ^64Cu-Tz-SarAr was calculated by dividing the integral of the parent compound peak over the integral of the entire radio-TLC chromatogram. All experiments were performed in triplicate.
Structure (SMILES),Blood activity concentration ([2]; 1 h p.i.),Bone activity concentration ([2]; 1 h p.i.),Heart activity concentration ([2]; 1 h p.i.),Kidney activity concentration ([2]; 1 h p.i.),Liver activity concentration ([2]; 1 h p.i.),Lung activity concentration ([2]; 1 h p.i.),Muscle activity concentration ([2]; 1 h p.i.),Spleen activity concentration ([2]; 1 h p.i.),Large Intestine activity concentration ([2]; 1 h p.i.),Small Intestine activity concentration ([2]; 1 h p.i.),Stomach activity concentration ([2]; 1 h p.i.),Blood activity concentration ([2]; 4 h p.i.),Bone activity concentration ([2]; 4 h p.i.),Heart activity concentration ([2]; 4 h p.i.),Kidney activity concentration ([2]; 4 h p.i.),Liver activity concentration ([2]; 4 h p.i.),Lung activity concentration ([2]; 4 h p.i.),Muscle activity concentration ([2]; 4 h p.i.),Spleen activity concentration ([2]; 4 h p.i.),Large Intestine activity concentration ([2]; 4 h p.i.),further results
O=C([O-])CN1CCN(CC(=O)[O-])CC(Cc2ccc(NC(=O)CCCC(=O)NCc3ccc(-c4nncnn4)cc3)cc2)N(CC(=O)[O-])CC1.[64Cu+2] (stereo not shown) [^64Cu-Tz-NOTA],0.23 ± 0.01 % ID/g,0.10 ± 0.03 % ID/g,0.10 ± 0.02 % ID/g,0.53 ± 0.09 % ID/g,1.45 ± 0.39 % ID/g,0.38 ± 0.06 % ID/g,0.04 ± 0.02 % ID/g,0.15 ± 0.05 % ID/g,11.58 ± 2.19 % ID/g,3.14 ± 1.47 % ID/g,0.12 ± 0.04 % ID/g,0.13 ± 0.01 % ID/g,0.07 ± 0.04 % ID/g,0.11 ± 0.02 % ID/g,0.33 ± 0.07 % ID/g,0.42 ± 0.13 % ID/g,0.27 ± 0.08 % ID/g,0.03 ± 0.02 % ID/g,0.09 ± 0.02 % ID/g,10.0±1.3 % ID/g and 10.03 ± 1.33 % ID/g,t1/2 of clearance through the intestinal tract [1]: ~4 h; Small Intestine activity concentration ([2]; 4 h p.i.): 0.17 ± 0.07 % ID/g; Stomach activity concentration ([2]; 4 h p.i.): 0.05 ± 0.03 % ID/g; Blood activity concentration ([2]; 24 h p.i.): 0.07 ± 0.01 % ID/g; Bone activity concentration ([2]; 24 h p.i.): 0.03 ± 0.01 % ID/g; Heart activity concentration ([2]; 24 h p.i.): 0.09 ± 0.01 % ID/g; Kidney activity concentration ([2]; 24 h p.i.): 0.22 ± 0.07 % ID/g; Liver activity concentration ([2]; 24 h p.i.): 0.21 ± 0.06 % ID/g; Lung activity concentration ([2]; 24 h p.i.): 0.21 ± 0.02 % ID/g; Muscle activity concentration ([2]; 24 h p.i.): 0.03 ± 0.03 % ID/g; Spleen activity concentration ([2]; 24 h p.i.): 0.08 ± 0.02 % ID/g; Large Intestine activity concentration ([2]; 24 h p.i.): 1.4±0.7 % ID/g and 1.37 ± 0.65 % ID/g; Small Intestine activity concentration ([2]; 24 h p.i.): 0.10 ± 0.02 % ID/g; Stomach activity concentration ([2]; 24 h p.i.): 0.18 ± 0.11 % ID/g
O=C(O)CN1CCN(CC(=O)O)CC(Cc2ccc(NC(=S)NCCOCCOCCOCCOCCOCCOCCOCCNC(=O)CCCC(=O)NCc3ccc(-c4nncnn4)cc3)cc2)N(CC(=O)O)CC1.[64Cu] (stereo not shown) [^64Cu-Tz-PEG7-NOTA],0.38 ± 0.14 % ID/g,0.09 ± 0.06 % ID/g,0.17 ± 0.02 % ID/g,1.5±0.2 % ID/g and 1.51 ± 0.24 % ID/g,0.77 ± 0.11 % ID/g,0.49 ± 0.11 % ID/g,0.05 ± 0.01 % ID/g,0.19 ± 0.01 % ID/g,6.35 ± 0.69 % ID/g,0.5 ± 0.26 % ID/g,0.18 ± 0.06 % ID/g,0.26 ± 0.14 % ID/g,0.07 ± 0.02 % ID/g,0.18 ± 0.03 % ID/g,1.2±0.4 % ID/g and 1.23 ± 0.39 % ID/g,0.63 ± 0.2 % ID/g,0.35 ± 0.13 % ID/g,0.03 ± 0.02 % ID/g,0.14 ± 0.02 % ID/g,4.9±0.7 % ID/g and 4.91 ± 0.71 % ID/g,Small Intestine activity concentration ([2]; 4 h p.i.): 0.3 ± 0.14 % ID/g; Stomach activity concentration ([2]; 4 h p.i.): 0.36 ± 0.25 % ID/g; Blood activity concentration ([2]; 24 h p.i.): 0.08 ± 0.01 % ID/g; Bone activity concentration ([2]; 24 h p.i.): 0.06 ± 0.01 % ID/g; Heart activity concentration ([2]; 24 h p.i.): 0.09 ± 0.01 % ID/g; Kidney activity concentration ([2]; 24 h p.i.): 0.86 ± 0.11 % ID/g; Liver activity concentration ([2]; 24 h p.i.): 0.32 ± 0.11 % ID/g; Lung activity concentration ([2]; 24 h p.i.): 0.17 ± 0.03 % ID/g; Muscle activity concentration ([2]; 24 h p.i.): 0.02 ± 0.01 % ID/g; Spleen activity concentration ([2]; 24 h p.i.): 0.12 ± 0.01 % ID/g; Large Intestine activity concentration ([2]; 24 h p.i.): 0.40 ± 0.15 % ID/g; Small Intestine activity concentration ([2]; 24 h p.i.): 0.10 ± 0.01 % ID/g; Stomach activity concentration ([2]; 24 h p.i.): 0.09 ± 0.02 % ID/g
NC12CNCCNCC(NCc3ccc(CNC(=O)CCCC(=O)NCc4ccc(-c5nncnn5)cc4)cc3)(CNCCNC1)CNCCNC2.[64Cu+2] [^64Cu-Tz-SarAr],0.42 ± 0.11 % ID/g,0.12 ± 0.03 % ID/g,0.22 ± 0.06 % ID/g,2.3±0.4 % ID/g and 2.34 ± 0.35 % ID/g,0.72 ± 0.03 % ID/g,0.32 ± 0.06 % ID/g,0.05 ± 0.03 % ID/g,0.38 ± 0.06 % ID/g,0.07±0.01 % ID/g,0.29 ± 0.21 % ID/g,0.24 ± 0.14 % ID/g,0.15 ± 0.01 % ID/g,0.09 ± 0.01 % ID/g,0.12 ± 0.02 % ID/g,1.57 ± 0.19 % ID/g,0.42 ± 0.24 % ID/g,0.31 ± 0.09 % ID/g,0.04 ± 0.01 % ID/g,0.2 ± 0.05 % ID/g,0.08 ± 0.03 % ID/g,% Intact in blood ([3]; 15 min post-injection): 96.8±0.8%; % Intact in blood ([3]; 1 h post-injection): 82.0±3.3%; % Intact in blood ([3]; 4 h post-injection): 29.0±5.9%; Small Intestine activity concentration ([2]; 4 h p.i.): 0.16 ± 0.03 % ID/g; Stomach activity concentration ([2]; 4 h p.i.): 0.2 ± 0.1 % ID/g; Blood activity concentration ([2]; 24 h p.i.): 0.06 ± 0.01 % ID/g; Bone activity concentration ([2]; 24 h p.i.): 0.08 ± 0.02 % ID/g; Heart activity concentration ([2]; 24 h p.i.): 0.08 ± 0.02 % ID/g; Kidney activity concentration ([2]; 24 h p.i.): 1.26 ± 0.41 % ID/g; Liver activity concentration ([2]; 24 h p.i.): 0.28 ± 0.07 % ID/g; Lung activity concentration ([2]; 24 h p.i.): 0.24 ± 0.06 % ID/g; Muscle activity concentration ([2]; 24 h p.i.): 0.03 ± 0.01 % ID/g; Spleen activity concentration ([2]; 24 h p.i.): 0.21 ± 0.04 % ID/g; Large Intestine activity concentration ([2]; 24 h p.i.): 0.07 ± 0.01 % ID/g; Small Intestine activity concentration ([2]; 24 h p.i.): 0.07 ± 0.01 % ID/g; Stomach activity concentration ([2]; 24 h p.i.): 0.05 ± 0.01 % ID/g
